Measurements published in patent US5079260A, “Method for treating inflammation and compounds and compositions suitable for use therein” (Nova Pharmaceutical Corporation, priority 1990, dated 1992).

Columns and labels:
[1] = tested on: Reverse Passive Artus Reaction; assay: Reverse Passive Artus Reaction (I), Table 6; format: in vivo, Male CD rats; settings: inhibition of blueing
Description: (§1) Such inflammatory agents typically include tetradecanoylphorbolacetate, arachidonic acid, xylene, capsaicin, oxazolone, carrageenan and the like. The reverse passive Arthus test offers another measure of the compound's utility in preventing an inflammatory response (Chang et al, Eur. J. Pharm. 69:155-164 (1981)). Test compounds are typically administered intraperitoneally or topically. For intraperitoneal administration, the test compound can be given in dimethyl sulfoxide or in 0.5% methylcellulose 30 minutes prior to administration of the irritant. For topical administration, the test compound can be dissolved in, for example, acetone, ethanol or dimethyl sulfoxide and applied about 15 minutes prior to application of the irritant. Results can be expressed as the percent decrease in swelling in the compound-treated animals as compared to control animals that receive only the irritant.
Reverse Passive Artus Reaction (I)
Male CD rats weighing between 200 and 250 g were used. Test compounds (compounds of Formula I where X is oxygen, R3, R4, A and B are hydrogen and Q is as indicated in Table 6) were dissolved in dimethyl sulfoxide and 200 μl of this solution (100 mg/kg) were injected intraperitoneally one hour before administration of the antigen. The animals were anesthetized inhalationally with isoflurane and then were injected through the penile vein with 1 ml of a solution of 2.5 mg of Evan's blue dye and 5.0 mg of human serum albumin in 1 ml of saline. This treatment was followed immediately by intracutaneous injections of 0.03 ml of anti-human albumin diluted to contain 3.65 mg of antibody at 3 sites along the midline back. Anesthesia was terminated and after three hours the animals were sacrificed. The skin was removed and the blue stained areas cut out. […] The tube contents were agitated and centrifuged, and the absorbance of the supernatant liquid was measured at 620 nm. The data were calculated as inhibition of blueing by test compound compared to control animals receiving only antigen and antibody.

[2] = tested on: Ear Edema Caused by Arachidonic Acid; assay: Inhibition of Ear Edema Caused by Arachidonic Acid (II), Table 8; format: in vivo, CF-1 mice; settings: i.p., sixty minutes
Procedure, shortened: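 CF-1 mice (25-30 g, six/group) dosed intraperitoneally with compound in DMSO or 0.5% methylcellulose 30 min before topical arachidonic acid (100 mg/mL in ethanol, both ear surfaces).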

[3] = tested on: Ear Edema Caused by Xylene; assay: Inhibition of Ear Edema Caused by Xylene (II), Table 9; format: in vivo, CF-1 mice; settings: i.p., 2 h
Procedure, shortened: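 CF-1 mice (25-30 g, six per group) received compound i.p. in DMSO or 0.5% methylcellulose 30 min before xylene was applied to both ear surfaces. Ear thickness was measured by micrometer 2 h later. Values are percent inhibition of the increase in ear thickness versus irritant-only controls.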

[4] = tested on: Ear Edema Caused by Tetradecanoylphorbolacetate; assay: Inhibition of Ear Edema Caused by Tetradecanoylphorbolacetate (I), Table 1; format: in vivo, CF-1 Mice; settings: i.p.
Description: as §1
Inhibition of Ear Edema Caused by Tetradecanoylphorbolacetate (I)
CF-1 Mice, 25-30 g body weight, six animals per group, were used. Test compounds (compounds of Formula I where X is oxygen, R3, R4, A and B are hydrogen and Q is as indicated in Table 1) were administered intraperitoneally (100 mg/kg) or topically as follows. For intraperitoneal administration, the test compound was dissolved in dimethyl sulfoxide or 0.5% methylcellulose and 100 μl was injected 30 minutes prior to irritant (100 mg/kg, i.p.). For topical administration, the test compound was dissolved in either acetone, ethanol or dimethyl sulfoxide and 5 μl (100 μg) applied to the upper surface (1 cm^2) of the ear and an additional 5 μl (100 μg) applied to the lower surface (1 cm^2) of the ear fifteen minutes prior to application of the irritant. A solution of the irritant, tetradecanoylphorbolacetate, 200 μg/ml, was added to the surface of the ear, 5 μl added to the upper surface and 5 μl to the lower surface. After three hours, the thickness of the ear was measured to 0.01 mm by a micrometer with loose drag positioned at the lateral-most edge of the mid-point of the pinna. Data were calculated as the inhibition by the test compound of increased ear thickness compared to control animals receiving only the irritant.

[5] = tested on: Ear Edema Caused By Tetradecanoylphorbol Acetate; assay: Inhibition of Ear Edema Caused by Tetradecanoylphorbol Acetate (II), Table 7; format: in vivo, CF-1 Mice; settings: i.p., 3 h
[6] = tested on: Reverse Passive Artus Reaction; assay: Reverse Passive Artus Reaction (II), Table 11; format: in vivo, Male CD rats; settings: inhibition of blueing, i.p.
Description: Reverse Passive Artus Reaction (II) Male CD rats weighing between 200 and 250 g were used. […] The animals were anesthetized inhalationally with isoflurane and then injected through the penile vein with 1 mL of a solution of 2.5 mg of Evan's blue dye and 5.0 mg of human serum albumin in 1 mL of saline. This treatment was followed immediately by intracutaneous injections of 0.03 mL of anti-human albumin diluted to contain 3.65 mg of antibody at 3 sites along the midline back. Anesthesia was terminated and after three hours, the animals were sacrificed. The skin was removed and the blue stained areas cut out. The skin patches were soaked overnight in stoppered tubes containing 1 mL of 1 N potassium hydroxide at 37° C. Then 9 mL of a mixture of five parts of a 0.6 N phosphoric acid and thirteen parts of acetone were added to the tubes. The tube contents were agitated and centrifuged, and the absorbance measured at 620 nm. The data were calculated as inhibition of blueing by test compound compared to control animals receiving only antigen and antibody.

[7] = tested on: Ear Edema Caused by Oxazolone; assay: Inhibition of Ear Edema Caused by Oxazolone (I), Table 5; format: in vivo, CF-1 Mice; settings: 24 h
Description: as §1
Inhibition of Ear Edema Caused by Oxazolone (I)
CF-1 Mice, 25-30 g body weight, six animals per group, were used. The mice were sensitized to the irritant two weeks prior to the test by dribbling 100 μl of a 3% solution of oxazolone in acetone onto the abdominal skin of the animal. Test compounds (compounds of Formula I where X is oxygen, R3, R4, A and B are hydrogen and Q is as indicated in Table 5) were administered intraperitoneally as follows. The test compound was dissolved in DMSO or 0.5% methylcellulose and 100 μl (100 mg/kg) was injected 30 minutes prior to irritant. The irritant, 3% oxazolone in acetone, was added to the surface of the ear, 5 μl added to the upper surface and 5 μl to the lower surface. After twenty four hours, the thickness of the ear was measured to 0.01 mm by a micrometer with loose drag positioned at the lateral-most edge of the mid-point of the pinna. Data were calculated as the inhibition by the test compound of increased ear thickness compared to control animals receiving only the irritant.

[8] = tested on: Ear Edema Caused by Xylene; assay: Inhibition of Ear Edema Caused by Xylene (I), Table 3; format: in vivo, CF-1 Mice; settings: 2 h; for % Inhibition Intraperitoneal: i.p., 100 mg/kg, 30 min before irritant
Description: as §1
Inhibition of Ear Edema Caused by Xylene (I)
CF-1 Mice, 25-30 g body weight, six animals per group, were used. Test compounds (compounds of Formula I where X is oxygen, R3, R4, A and B are hydrogen and Q is as indicated in Table 3) were administered intraperitoneally (100 mg/kg) or topically as follows. For intraperitoneal administration, the test compound was dissolved in DMSO or 0.5% methylcellulose and 100 μl was injected 30 minutes prior to irritant. For topical administration, test compound was dissolved in either acetone, ethanol or dimethyl sulfoxide and 5 μl (10 μg) applied to the upper surface (1 cm^2) of the ear and an additional 5 μl (10 μg) applied to the lower surface (1 cm^2) of the ear fifteen minutes prior to application of the irritant. The irritant, xylene, was added to the surface of the ear, 20 μl added to the upper surface and 20 μl to the lower surface. After two hours, the thickness of the ear was measured to 0.01 mm by a micrometer with loose drag positioned at the lateral-most edge of the mid-point of the pinna. Data were calculated as the inhibition by the test compound of increased ear thickness compared to that of control animals receiving only the irritant.

[9] = tested on: Ear Edema Caused by Arachidonic Acid; assay: Inhibition of Ear Edema Caused by Arachidonic Acid (I), Table 2; format: in vivo, CF-1 Mice; settings: i.p., 100 mg/kg; ear thickness at sixty minutes
Description: as §1
Inhibition of Ear Edema Caused by Arachidonic Acid (I)
CF-1 Mice, 25-30 g body weight, six animals per group, were used. Test compounds (compounds of Formula I where X is oxygen, R3, R4, A and B are hydrogen and Q is as indicated in Table 2) were administered intraperitoneally (100 mg/kg) as follows. For intraperitoneal administration, test compound was dissolved in DMSO or 0.5% methylcellulose and 100 μl was injected 30 minutes prior to i.p. administration of 100 mg/kg of arachidonic acid. A solution of the irritant, arachidonic acid, 100 mg/ml in ethanol, was added to the surface of the ear, 5 μl added to the upper surface and 5 μl to the lower surface. After sixty minutes, the thickness of the ear was measured to 0.01 mm by a micrometer with loose drag positioned at the lateral-most edge of the mid-point of the pinna. Data were calculated as the percent inhibition by the test compound of increased ear thickness compared to control animals receiving only the irritant.

[10] = tested on: Ear Edema Caused by Oxazolone; assay: Inhibition of Ear Edema Caused by Oxazolone (II), Table 10; format: in vivo, CF-1 mice; settings: i.p., 24 h
[11] = 100 mg/kg, 30 min before irritant, ear thickness at 3 h

SMILES | % Inhibition Intraperitoneal ([2]; 10 mg/kg) | % Inhibition ([3]; 10 mg/kg) | % Inhibition Intraperitoneal ([5]; 10 mg/kg) | % Inhibition Intraperitoneal [4, 11] | % Inhibition Intraperitoneal ([2]; 30 mg/kg) | % Inhibition Intraperitoneal ([2]; 100 mg/kg) | % Inhibition ([3]; 30 mg/kg) | % Inhibition ([3]; 100 mg/kg) | % Inhibition Intraperitoneal ([5]; 30 mg/kg) | % Inhibition Intraperitoneal ([5]; 100 mg/kg) | further results
COc1cc2c(c(OC)c1OC)-c1ccc(OC)c(=O)cc1[C@@H](NC(C)=O)CC2 [Colchicine, reference compound] | – | – | – | – | – | – | – | – | – | – | % Inhibition Intraperitoneal ([1]; Reference Standard 1 mg/kg): 64%
C[C@@H]1C[C@H]2[C@@H]3CCC4=CC(=O)C=C[C@]4(C)[C@@]3(F)[C@@H](O)C[C@]2(C)[C@@]1(O)C(=O)CO [Dexamethasone, reference compound] | 12% | 34% | 50% | – | – | – | – | – | – | – | % Inhibition Intraperitoneal ([4]; Reference Standard, 10 mg/kg, 3 h): 50%; % Inhibition Intraperitoneal ([6]; 10 mg/kg): 4%; % Inhibition Intraperitoneal ([7]; Reference Standard at 10 mg/kg): 48%
NCCCC[C@H](N)C(=O)O [L-Lysine] | – | – | – | 14% | – | – | – | – | – | – | –
O=C(N[C@@H](Cc1ccccc1)C(=O)O)OCC1c2ccccc2-c2ccccc21 [L-Phenylalanine, N-[(9H-Fluoren-9-ylmethoxy)carbonyl]-L-phenylalanine] | – | – | – | 78% | – | – | – | – | – | – | % Inhibition Intraperitoneal [8]: 49%; % Inhibition, topical ([8]; topical, 10 μg upper + 10 μg lower ear surface, 15 min before irritant): 50%; % Inhibition Intraperitoneal [9]: 70%; % Inhibition Intraperitoneal ([7]; i.p., 100 mg/kg, 30 min before irritant, sensitized mice): 62%; % Inhibition Intraperitoneal ([1]; i.p., 100 mg/kg, one hour before antigen): 47%
Cc1cccc2c1C(CCC(=O)N[C@H](C(=O)O)C(C)(C)C)c1ccccc1-2 (stereo partly drawn) [NPC 15885, N-{9H-[3-(1-Methylfluoren-9-yl)propionyl]}-L-tert-leucine, quarter hydrate] | 52% | 39% | 70% | – | 71% | 79% | 49% | 48% | 77% | 80% | % Inhibition Intraperitoneal ([6]; 100 mg/kg): 49%; % Inhibition Intraperitoneal ([10]; 10 mg/kg): 1%; % Inhibition Intraperitoneal ([10]; 30 mg/kg): 8%; % Inhibition Intraperitoneal ([10]; 100 mg/kg): 36%
CC(C)(SCc1ccccc1)[C@@H](NC(=O)OCC1c2ccccc2-c2ccccc21)C(=O)O [NPC 15953, S-Benzyl-β,β-dimethyl-N-[9H-(fluoren-9-ylmethoxy)carbonyl]-D-cystein] | 46% | 46% | 64% | – | 66% | 60% | 66% | 60% | 87% | 95% | % Inhibition Intraperitoneal ([6]; 100 mg/kg): 68%; % Inhibition Intraperitoneal ([10]; 10 mg/kg): 0%; % Inhibition Intraperitoneal ([10]; 30 mg/kg): 28%; % Inhibition Intraperitoneal ([10]; 100 mg/kg): 79%
CN1C(C(=O)Nc2ccccn2)=C(O)c2ccccc2S1(=O)=O [Piroxicam, reference compound] | 56% | 53% | 7% | 40% | 77% | 86% | 49% | 74% | 14% | 40% | % Inhibition Intraperitoneal [8]: 74%; % Inhibition Intraperitoneal [9]: 86%
